# Test results as given in article PMC8286840, “Identifying SARS-CoV-2 antiviral compounds by screening for small molecule inhibitors of Nsp3 papain-like protease” (Biochemical Journal, 2021).
# Where a name gives a salt, the structure may show the parent alone. Read-outs that look alike come from different tables or passages of the source.
# What was measured:
# [1] = target: T1, SARS-CoV-2 PLpro (nsp3 1564–1878) (Severe acute respiratory syndrome coronavirus 2, UniProt P0DTD1); test: biochemical; set-up: FRET-quenched peptide (Pro3) cleavage by PLpro, 10 min pre-incubation, slope over 20 min, normalised to no-compound control; conditions: low concentration screen, read-out: % of control remaining
# [2] = target: T1, SARS-CoV-2 PLpro (nsp3 1564–1878); test: biochemical; set-up: FRET-quenched peptide (Pro3) cleavage by PLpro, 10 min pre-incubation, slope over 20 min, normalised to no-compound control; conditions: high concentration screen, read-out: % of control remaining
smiles,measurement,setting,value
CCCCCCCCCCCCCCCC(=O)OC/C=C(C)/C=C/C=C(C)/C=C/C1=C(C)CCCC1(C)C [Retinyl palmitate],remaining activity at 1.25 µM,[1]; Well no.=4134,96.7%
same,remaining activity at 3.75 µM,[2]; Well no.=4134,97.6%
C/C=C1\C[C@@H](C)[C@](O)(CO)C(=O)OCC2=CCN3CC[C@@H](OC1=O)[C@@H]23 [Retrorsine],remaining activity at 1.25 µM,[1]; Well no.=3298,99.9%
same,remaining activity at 3.75 µM,[2]; Well no.=3298,104%
O=C(NCCCN1CCOCC1)c1cnn2c(-c3ccccc3)cc(-c3ccccc3)nc12 [Reversan],remaining activity at 1.25 µM,[1]; Well no.=5656,96.9%
same,remaining activity at 3.75 µM,[2]; Well no.=5656,98.2%
c1nc2c(NC3CCCCC3)nc(Nc3ccc(N4CCOCC4)cc3)nc2[nH]1 [Reversine],remaining activity at 1.25 µM,[1]; Well no.=2621,98.6%
same,remaining activity at 3.75 µM,[2]; Well no.=2621,100%
COc1ccc(/C=C/c2cc(O)cc(O[C@@H]3O[C@H](CO)[C@@H](O)[C@H](O)[C@H]3O)c2)cc1O [Rhapontin],remaining activity at 1.25 µM,[1]; Well no.=3300,102%
same,remaining activity at 3.75 µM,[2]; Well no.=3300,101%
"c1ccc2c(-c3ccncc3)c[nH]c2c1 [Rho Kinase Inhibitor III, Rockout]",remaining activity at 1.25 µM,[1]; Well no.=2557,101%
same,remaining activity at 3.75 µM,[2]; Well no.=2557,103%
Cc1cncc2cccc(S(=O)(=O)N3CCCN(C(=O)CN)C[C@@H]3C)c12 [Rho Kinase Inhibitor IV],remaining activity at 1.25 µM,[1]; Well no.=2559,104%
same,remaining activity at 3.75 µM,[2]; Well no.=2559,105%
C[C@@H]1O[C@@H](O[C@H]2[C@H](Oc3cc(O)c4c(=O)cc(-c5ccc(O)cc5)oc4c3)O[C@H](CO)[C@@H](O)[C@@H]2O)[C@H](O)[C@H](O)[C@H]1O [Rhoifolin],remaining activity at 1.25 µM,[1]; Well no.=3733,95.5%
same,remaining activity at 3.75 µM,[2]; Well no.=3733,98.5%
N[C@H](Cc1c[nH]c2ccccc12)C(=O)N/N=C/c1ccc2nccnc2c1 [Rhosin (hydrochloride)],remaining activity at 1.25 µM,[1]; Well no.=7170,91.4%
same,remaining activity at 3.75 µM,[2]; Well no.=7170,93%
NC(=O)c1ncn([C@@H]2O[C@H](CO)[C@@H](O)[C@H]2O)n1 [Ribavirin],remaining activity at 1.25 µM,[1]; Well no.=1256,96.8%
same,remaining activity at 1.25 µM,[1]; Well no.=2199,96.4%
same,remaining activity at 3.75 µM,[2]; Well no.=1256,97.1%
same,remaining activity at 3.75 µM,[2]; Well no.=2199,98.2%
OC[C@@H](O)[C@@H](O)[C@@H](O)CO [Ribitol],remaining activity at 1.25 µM,[1]; Well no.=6775,104%
same,remaining activity at 3.75 µM,[2]; Well no.=6775,102%
CCCCCC[C@@H](O)C/C=C\CCCCCCCC(=O)O [Ricinoleic acid],remaining activity at 1.25 µM,[1]; Well no.=4484,102%
same,remaining activity at 3.75 µM,[2]; Well no.=4484,99.9%
CCC[S+]([O-])c1ccc2[nH]c(NC(=O)OC)nc2c1 (stereo not drawn) [Ricobendazole],remaining activity at 1.25 µM,[1]; Well no.=2021,103%
same,remaining activity at 3.75 µM,[2]; Well no.=2021,106%
CO[C@H]1/C=C/O[C@@]2(C)Oc3c(C)c(O)c4c(O)c(c(/C=N/N5CCN(C)CC5)c(O)c4c3C2=O)NC(=O)/C(C)=C\C=C\[C@H](C)[C@H](O)[C@@H](C)[C@@H](O)[C@@H](C)[C@H](OC(C)=O)[C@@H]1C [Rifampicin],remaining activity at 1.25 µM,[1]; Well no.=1668,103%
same,remaining activity at 1.25 µM,[1]; Well no.=3138,101%
same,remaining activity at 3.75 µM,[2]; Well no.=1668,102%
same,remaining activity at 3.75 µM,[2]; Well no.=3138,97.7%
COc1cc(OC)c(/C=C/S(=O)(=O)Cc2ccc(OC)c(NCC(=O)O)c2)c(OC)c1 [Rigosertib (sodium)],remaining activity at 1.25 µM,[1]; Well no.=6400,98.5%
same,remaining activity at 3.75 µM,[2]; Well no.=6400,97.7%
C1COC(NC(C2CC2)C2CC2)=N1 [Rilmenidine hemifumarate],remaining activity at 1.25 µM,[1]; Well no.=1450,101%
same,remaining activity at 3.75 µM,[2]; Well no.=1450,99.9%
CC(N)C12CC3CC(CC(C3)C1)C2 (stereo not drawn) [Rimantadine],remaining activity at 1.25 µM,[1]; Well no.=2203,99.7%
same,remaining activity at 3.75 µM,[2]; Well no.=2203,99.8%
CC[C@H](C(=O)N1CCCC[C@H]1C(=O)O[C@H](CCc1ccc(OC)c(OC)c1)c1cccc(OCC(=O)NCCNC(=O)COc2cccc([C@@H](CCc3ccc(OC)c(OC)c3)OC(=O)[C@@H]3CCCCN3C(=O)[C@@H](CC)c3cc(OC)c(OC)c(OC)c3)c2)c1)c1cc(OC)c(OC)c(OC)c1 [Rimiducid],remaining activity at 1.25 µM,[1]; Well no.=7156,94.6%
same,remaining activity at 1.25 µM,[1]; Well no.=8596,96.4%
same,remaining activity at 3.75 µM,[2]; Well no.=7156,91.8%
same,remaining activity at 3.75 µM,[2]; Well no.=8596,89.6%
Cc1c(C(=O)NN2CCCCC2)nn(-c2ccc(Cl)cc2Cl)c1-c1ccc(Cl)cc1 [Rimonabant (Hydrochloride)],remaining activity at 1.25 µM,[1]; Well no.=8011,99.6%
same,remaining activity at 3.75 µM,[2]; Well no.=8011,90.1%
Cc1c(C(=O)NN2CCCCC2)nn(-c2ccc(Cl)cc2Cl)c1-c1ccc(Cl)cc1 [Rimonabant],remaining activity at 1.25 µM,[1]; Well no.=8438,92.2%
same,remaining activity at 3.75 µM,[2]; Well no.=8438,97%
COC(=O)N(C)c1c(N)nc(-c2nn(Cc3ccccc3F)c3ncccc23)nc1N [Riociguat],remaining activity at 1.25 µM,[1]; Well no.=6654,107%
same,remaining activity at 3.75 µM,[2]; Well no.=6654,108%
O=P(O)(O)C(O)(Cc1cccnc1)P(=O)(O)O [Risedronate sodium],remaining activity at 1.25 µM,[1]; Well no.=4819,104%
same,remaining activity at 3.75 µM,[2]; Well no.=4819,102%
O=P(O)(O)C(O)(Cc1cccnc1)P(=O)(O)O [Risedronic acid],remaining activity at 1.25 µM,[1]; Well no.=1989,97.8%
same,remaining activity at 3.75 µM,[2]; Well no.=1989,96.9%
Cc1nc2n(c(=O)c1CCN1CCC(c3noc4cc(F)ccc34)CC1)CCCC2 [Risperidone],remaining activity at 1.25 µM,[1]; Well no.=1306,103%
same,remaining activity at 1.25 µM,[1]; Well no.=1606,100%
same,remaining activity at 3.75 µM,[2]; Well no.=1306,103%
same,remaining activity at 3.75 µM,[2]; Well no.=1606,102%
Cc1nc2sccn2c(=O)c1CCN1CCC(=C(c2ccc(F)cc2)c2ccc(F)cc2)CC1 [Ritanserin],remaining activity at 1.25 µM,[1]; Well no.=1352,94.6%
same,remaining activity at 3.75 µM,[2]; Well no.=1352,96.7%
CC(C)c1nc(CN(C)C(=O)N[C@H](C(=O)N[C@@H](Cc2ccccc2)C[C@H](O)[C@H](Cc2ccccc2)NC(=O)OCc2cncs2)C(C)C)cs1 [Ritonavir],remaining activity at 1.25 µM,[1]; Well no.=4721,102%
same,remaining activity at 3.75 µM,[2]; Well no.=4721,102%
O=C(NC[C@H]1CN(c2ccc(N3CCOCC3=O)cc2)C(=O)O1)c1ccc(Cl)s1 [Rivaroxaban],remaining activity at 1.25 µM,[1]; Well no.=8390,93.8%
same,remaining activity at 3.75 µM,[2]; Well no.=8390,88.4%
CCN(C)C(=O)Oc1cccc([C@H](C)N(C)C)c1 [Rivastigmine],remaining activity at 1.25 µM,[1]; Well no.=1722,95.2%
same,remaining activity at 3.75 µM,[2]; Well no.=1722,96.3%
CN(C)CCc1c[nH]c2ccc(Cn3cncn3)cc12 [Rizatriptan (benzoate)],remaining activity at 1.25 µM,[1]; Well no.=6174,93.4%
same,remaining activity at 3.75 µM,[2]; Well no.=6174,89.9%
NC(=O)c1ccc(OCC(O)CN2CC=C(c3ccc(F)cc3)CC2)cc1 (stereo not drawn) [Ro 8-4304],remaining activity at 1.25 µM,[1]; Well no.=1160,98.3%
same,remaining activity at 3.75 µM,[2]; Well no.=1160,99.3%
Cc1ncc(CN2CC=C(c3ccccc3)CC2)c(N)n1 [Ro 10-5824 (dihydrochloride)],remaining activity at 1.25 µM,[1]; Well no.=7039,105%
same,remaining activity at 3.75 µM,[2]; Well no.=7039,106%
NCCNC(=O)c1ccc(Cl)cc1 [Ro 16-6491 hydrochloride],remaining activity at 1.25 µM,[1]; Well no.=1448,94.7%
same,remaining activity at 3.75 µM,[2]; Well no.=1448,92.5%
